The target in test [1] is Proto-oncogene tyrosine-protein kinase receptor Ret [G810R] (Human, UniProt P07949, G810R). The test is described as follows: HTRF Assay. For orientation: TR-FRET usually uses a lanthanide donor and a delayed reading to cut background.
Test [2] concerns the target Proto-oncogene tyrosine-protein kinase receptor Ret [V804M] (Human, UniProt P07949, V804M). Kind of test: HTRF Assay.

SMILES strings stand for the structures.

Drawing on BindingDB's records for patent US20240174674 (Applied Pharmaceutical Science, 2024), this text covers IC50 for four molecules.

Chain of Proto-oncogene tyrosine-protein kinase receptor Ret [G810R] (P07949 29-1114 G810R limits assumed): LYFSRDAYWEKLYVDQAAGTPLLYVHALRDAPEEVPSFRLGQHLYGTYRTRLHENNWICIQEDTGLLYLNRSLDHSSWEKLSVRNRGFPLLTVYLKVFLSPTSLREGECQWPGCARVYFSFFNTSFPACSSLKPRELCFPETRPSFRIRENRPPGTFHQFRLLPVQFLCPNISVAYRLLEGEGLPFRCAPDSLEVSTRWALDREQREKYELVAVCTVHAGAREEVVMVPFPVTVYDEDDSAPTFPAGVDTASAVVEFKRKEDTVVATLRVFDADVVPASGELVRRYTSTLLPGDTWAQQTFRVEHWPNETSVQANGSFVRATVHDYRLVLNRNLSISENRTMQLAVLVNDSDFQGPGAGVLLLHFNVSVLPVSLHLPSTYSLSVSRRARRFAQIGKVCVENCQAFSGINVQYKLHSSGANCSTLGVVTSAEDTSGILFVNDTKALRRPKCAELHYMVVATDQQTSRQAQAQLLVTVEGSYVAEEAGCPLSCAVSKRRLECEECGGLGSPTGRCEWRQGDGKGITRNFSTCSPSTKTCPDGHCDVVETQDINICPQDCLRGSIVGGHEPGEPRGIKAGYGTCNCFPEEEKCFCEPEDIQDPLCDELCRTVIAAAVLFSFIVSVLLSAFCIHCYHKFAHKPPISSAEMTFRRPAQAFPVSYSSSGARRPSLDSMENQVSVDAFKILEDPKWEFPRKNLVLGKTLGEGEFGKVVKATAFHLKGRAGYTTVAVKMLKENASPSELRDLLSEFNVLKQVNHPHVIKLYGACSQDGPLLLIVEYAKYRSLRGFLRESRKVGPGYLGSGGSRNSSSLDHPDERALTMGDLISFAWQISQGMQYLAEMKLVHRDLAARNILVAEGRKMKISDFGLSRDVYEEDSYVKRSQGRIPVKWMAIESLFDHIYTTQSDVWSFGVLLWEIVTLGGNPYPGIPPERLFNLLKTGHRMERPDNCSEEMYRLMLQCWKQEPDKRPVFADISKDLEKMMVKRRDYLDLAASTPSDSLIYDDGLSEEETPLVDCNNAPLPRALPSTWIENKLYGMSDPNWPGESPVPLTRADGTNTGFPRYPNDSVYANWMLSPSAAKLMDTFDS
Chain of Proto-oncogene tyrosine-protein kinase receptor Ret [V804M] (P07949 29-1114 V804M limits assumed): as the sequence (P07949 29-1114 G810R limits assumed) above, with V776M, R782G counted along it

`CCOc1cc(-c2ccc(N3C[C@H](Oc4ccccn4)[C@@H](N)C3)nc2)c2c3cn[nH]c3nn2c1` [US20240174674, Compound 31]: in test [1], the IC50 came out at 2.6 nM.
In the case of `CCOc1cc(-c2ccc(N3CC[C@H](NC(=O)CC(C)C)[C@H](O)C3)nc2)c2c3cn[nH]c3nn2c1` [US20240174674, Compound 40], the IC50 was found to be 2.2 nM in test [1] and 0.1 nM in test [2].
For the molecule `CCOc1cc(-c2ccc(N3C[C@H]4C[C@@H](NC(=O)c5c(F)cccc5Cl)C[C@H]4C3)nc2)c2c3cn[nH]c3nn2c1` [US20240174674, Compound 176], the midpoint of inhibition in test [1], the IC50, lay at 12.1 nM.
On the same count and under the same terms, to `CCOc1cc(-c2ccc(N3CC[C@H](NC(=O)c4ncc(F)cc4Cl)[C@H](O)C3)nc2)c2c3cn[nH]c3nn2c1` [US20240174674, Compound 285] belongs 5 nM.

A word on the IC50: it is the midpoint of a concentration-inhibition curve. The low end stands for higher potency, the high end for lower potency.
